Our source for the IC50 values is the Kinase Knowledgebase extract (Sharma et al. 2016).

The target of the assay is MAPK14 (human) (UniProt Q16539). The assay is described as follows: Inhibition of MAPK14 Kinase Activity.
Chain of MAPK14 (human) (Q16539 whole entry, looked up): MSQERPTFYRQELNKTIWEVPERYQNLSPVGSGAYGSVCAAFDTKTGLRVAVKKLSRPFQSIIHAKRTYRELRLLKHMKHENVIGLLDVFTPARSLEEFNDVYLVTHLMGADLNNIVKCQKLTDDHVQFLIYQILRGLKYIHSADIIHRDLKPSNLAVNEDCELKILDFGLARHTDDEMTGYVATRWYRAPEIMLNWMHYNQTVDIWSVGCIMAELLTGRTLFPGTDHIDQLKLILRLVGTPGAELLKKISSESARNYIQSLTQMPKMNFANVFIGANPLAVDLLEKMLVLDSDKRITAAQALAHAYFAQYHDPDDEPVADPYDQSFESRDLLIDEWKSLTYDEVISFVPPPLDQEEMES
Consider `CC(C)Nc1cnc(-c2cc(-c3ccccc3)c3nc(CCO)cn3c2)s1`, for which the IC50 is 38 nM.

In turn, `CC(C)Nc1ncc(-c2cc(-c3ccc(F)c(Cl)c3)c3nncn3c2)s1` displayed an IC50 of 604 nM. Molecule `CCCCNc1ncc(-c2cc(-c3ccccc3)c3nc(C(=O)OCC)cn3c2)s1` yielded a 50% inhibitory concentration (IC50) of 40 nM.

Regarding `Cc1ccc(C)c(-c2cc(-c3cnc(NC(C)C)s3)cn3ccnc23)c1`, the IC50 was found to be 1540 nM. Against the preceding molecule, the IC50 is about 38-fold higher. The figure for `CC(C)C(C)Nc1ncc(-c2cc(-c3ccccc3)c3nccn3c2)s1` (configuration not stated) is 41.6 nM; for `CCOC(=O)c1ccccc1-c1cc(-c2cnc(NC(C)C)s2)cn2ccnc12` it is 795 nM; for `CC(C)C(C)Nc1ncc(-c2cc(-c3ccccc3Cl)c3nccn3c2)s1` (configuration not stated) it is 39 nM.

On to `Cc1ccccc1-c1cc(-c2cnc(NCCN(C)C)s2)cn2ccnc12`, for which the half-maximal inhibitory concentration (IC50) is 1780 nM. In turn, `Cc1cscc1-c1cc(-c2cnc(NC(C)C)s2)cn2ccnc12` came in with a half-inhibitory concentration (IC50) of 5.2 nM. Next, `COC(=O)Cc1cn2cc(-c3cn[nH]c3)cc(-c3ccccc3)c2n1`: 924 nM.

Molecule `Cc1c(-c2cc(-c3ccccc3)c3nccn3c2)cnn1-c1ccccc1` returned an IC50 of 630 nM. The IC50 values of the last two molecules are within 1.5-fold of each other. With `CC[C@@H](C)Nc1ncc(-c2cn3ccnc3c(-c3ccccc3F)n2)s1`, the IC50 amounted to 23 nM. This IC50 lies about 27-fold lower than the previous one. The figure for `CC[C@@H](C)Nc1ncc(-c2cc(-c3ccccc3)c3nc(CC(=O)OC)cn3c2)s1` is 33 nM; for `CCOCC(C)Nc1ncc(-c2cn3ccnc3c(-c3ccccc3F)n2)s1` (configuration not stated) it is 40 nM; for `CC(C)Nc1ncc(-c2cc(-c3ccccc3F)c3nncn3c2)s1` it is 13 nM. Next, `CCC(CC)Nc1ncc(-c2cc(-c3cccc(C#N)c3)c3nccn3c2)s1`: 807 nM; `CC(C)Nc1ncc(-c2cc(-c3ccccc3)c3nncn3c2)s1`: 581 nM.

`CC(C)Nc1ncc(-c2cc(-c3ccccc3C#N)c3nccn3c2)s1` had an IC50 of 669 nM. Next, `CC(C)Nc1ncc(-c2cc(-c3ccccc3Cl)c3nncn3c2)s1`: 15 nM.

`CC(C)Nc1ncc(-c2cc(-c3cccc(F)c3)c3nncn3c2)s1` showed an IC50 of 91 nM. Consider `CC[C@@H](C)Nc1ncc(-c2cc(-c3ccccc3F)c3nccn3c2)s1`, for which the 50% inhibitory concentration (IC50) is 3.4 nM. This IC50 is about 27-fold lower than that of the molecule before. The figure for `CC[C@@H](C)Nc1ncc(-c2cc(-c3cscc3C)c3nccn3c2)s1` is 3 nM; for `CC(C)Nc1ncc(-c2cn3ccnc3c(-c3ccccc3)n2)s1` it is 60 nM. Next, `CC[C@@H](C)Nc1ncc(-c2cn3ccnc3c(-c3ccccc3O)n2)s1`: 809 nM. The figure for `CNC(=O)c1cn2cc(-c3cnc(NC(C)C)s3)cc(-c3ccccc3)c2n1` is 37 nM; for `Fc1ccccc1-c1nc(-c2cnc(NC3CCOCC3)s2)cn2ccnc12` it is 109 nM; for `CC[C@@H](C)Nc1ncc(-c2cc(-c3ccccc3Cl)c3nccn3c2)s1` it is 5.9 nM. As to `CCOC(=O)c1cn2cc(-c3cnc(N[C@H](C)CC)s3)cc(-c3ccccc3F)c2n1`, the IC50 is 6 nM. Next, `CC[C@@H](C)Nc1ncc(-c2cc(-c3ccccc3C)c3nccn3c2)s1`: 5 nM. Next, `CC(C)Nc1ncc(-c2cc(-c3cccc(C#N)c3)c3nccn3c2)s1`: 926 nM; `CC[C@@H](C)Nc1ncc(-c2cc(-c3ccc(F)cc3F)c3nccn3c2)s1`: 5.7 nM; `Fc1ccc(-c2cc(-c3cnc(NC4CCOCC4)s3)cn3ccnc23)cc1`: 35.8 nM.

What is called IC50 is the point on the concentration scale where inhibition reaches its midpoint. Higher therefore signals a need for much substance.
